Measured values as given in patent US9012651B2, “TRPV3 modulators” (AbbVie Inc., priority 2011, dated 2015).

molecular target: human TRPV3 receptors (Homo sapiens (Human), UniProt Q8NET8); assay: Calcium flux assay (FLIPR TETRA), inhibition of the 2-APB response; assay type: cell-based; settings: recombinant HEK293 cells stably expressing TRPV3, Calcium-4 dye, 2-APB at its EC80
Method in brief: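 HEK293 cells stably expressing human and mouse TRPV3, plated the day before and dye-loaded 90-120 min in the dark, read on FLIPR Tetra. Peak fluorescence increase over baseline was expressed as percent of the maximal 2-APB response without compound.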

Sequence of human TRPV3 receptors (Q8NET8 whole entry): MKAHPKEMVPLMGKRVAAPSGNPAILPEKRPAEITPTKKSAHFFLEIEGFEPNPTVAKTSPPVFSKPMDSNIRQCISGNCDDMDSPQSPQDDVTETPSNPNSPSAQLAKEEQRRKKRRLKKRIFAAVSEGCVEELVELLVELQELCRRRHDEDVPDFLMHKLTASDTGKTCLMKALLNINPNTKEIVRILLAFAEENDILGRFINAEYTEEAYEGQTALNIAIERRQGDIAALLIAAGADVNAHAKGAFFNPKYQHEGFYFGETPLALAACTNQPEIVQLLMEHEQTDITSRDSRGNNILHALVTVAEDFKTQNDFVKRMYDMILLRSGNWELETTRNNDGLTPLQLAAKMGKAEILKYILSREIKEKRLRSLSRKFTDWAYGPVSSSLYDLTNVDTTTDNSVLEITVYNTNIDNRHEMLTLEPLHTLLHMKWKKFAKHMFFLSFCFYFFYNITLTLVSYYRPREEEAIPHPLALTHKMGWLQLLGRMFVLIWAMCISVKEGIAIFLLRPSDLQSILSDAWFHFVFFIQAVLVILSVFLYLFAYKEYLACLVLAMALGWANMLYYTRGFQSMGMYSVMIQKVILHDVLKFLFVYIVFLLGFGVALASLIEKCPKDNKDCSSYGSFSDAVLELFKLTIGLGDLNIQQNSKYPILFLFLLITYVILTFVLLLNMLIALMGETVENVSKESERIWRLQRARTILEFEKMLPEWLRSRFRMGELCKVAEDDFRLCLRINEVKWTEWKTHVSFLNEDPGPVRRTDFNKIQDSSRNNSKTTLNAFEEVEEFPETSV

Question: For CC(C)[C@H](CO)NCc1nc(N2CCCC(C(F)(F)F)C2)ccc1F (stereo partly drawn) [Example 65, (2R)-2-[({3-fluoro-6-[3-(trifluoromethyl)piperidin-1-yl]pyridin-2-yl}methyl)amino]-3-methylbutan-1-ol], which IC50 is on record?
Answer: 320 nM

Question: With O[C@H]1CCCC[C@@H]1NCc1ccnc(-c2ccc(C(F)(F)F)cc2)n1 [Example 171, (1S,2S)-2-[({2-[4-(trifluoromethyl)phenyl]pyrimidin-4-yl}methyl)amino]cyclohexanol] as the compound, how does the IC50 read?
Answer: 5510 nM

Question: Which IC50 does the source give for CC(C)(CO)CNCc1ccnc(-c2ccc(C(F)(F)F)cc2)n1 [Example 156, 2,2-dimethyl-3-[({2-[4-(trifluoromethyl)phenyl]pyrimidin-4-yl}methyl)amino]propan-1-ol] here?
Answer: > 20000 nM

Question: With CCCCOc1ccc(-c2cccc(CN[C@@H](CO)C(C)C)n2)cc1Cl [Example 262, (2R)-2-({[6-(4-butoxy-3-chlorophenyl)pyridin-2-yl]methyl}amino)-3-methylbutan-1-ol] as the compound, how does the IC50 read?
Answer: 810 nM

Question: For CC(C)[C@H](CO)NCc1nc(C#Cc2ccc(F)cc2)ccc1F [Example 238, (2R)-2-[({3-fluoro-6-[(4-fluorophenyl)ethynyl]pyridin-2-yl}methyl)amino]-3-methylbutan-1-ol], which IC50 is on record?
Answer: 290 nM

Question: How did the IC50 turn out when CC(C)[C@@H](NCc1nc(-c2ccc(C(F)(F)F)cc2)ccc1F)C(C)O (stereo partly drawn) [Example 107, (3R)-3-[({3-fluoro-6-[4-(trifluoromethyl)phenyl]pyridin-2-yl}methyl)amino]-4-methylpentan-2-ol] was run?
Answer: 700 nM

Question: CC(C)[C@H](CO)NCc1cccc(-c2ccc(C(F)(F)F)cc2C(F)(F)F)n1 [Example 270, (2R)-2-[({6-[2,4-bis(trifluoromethyl)phenyl]pyridin-2-yl}methyl)amino]-3-methylbutan-1-ol] was tested. Which IC50 did it give?
Answer: 550 nM

Question: For CC(C)[C@H](CO)NCc1nc(C2CCC(C)(C)CC2)ccc1F [Example 202, (2R)-2-({[6-(4,4-dimethylcyclohexyl)-3-fluoropyridin-2-yl]methyl}amino)-3-methylbutan-1-ol], which IC50 is on record?
Answer: 790 nM

Question: CC(C)[C@H](CO)NCc1nc([C@H]2CC[C@@H](C(F)(F)F)CC2)ccc1F [Example 257, (2R)-2-[({3-fluoro-6-[cis-4-(trifluoromethyl)cyclohexyl]pyridin-2-yl}methyl)amino]-3-methylbutan-1-ol] was tested. Which IC50 did it give?
Answer: 340 nM

Question: With C[C@@H](O)[C@@H](CO)NCc1ccnc(-c2ccc(S(=O)(=O)C(F)(F)F)cc2)n1 [Example 212, (2R,3R)-2-{[(2-{4-[(trifluoromethyl)sulfonyl]phenyl}pyrimidin-4-yl)methyl]amino}butane-1,3-diol] as the compound, how does the IC50 read?
Answer: 2530 nM

Question: For CC(C)[C@H](CO)NCc1cccc(C#Cc2ccc(Cl)cc2)n1 [Example 286, (2R)-2-[({6-[(4-chlorophenyl)ethynyl]pyridin-2-yl}methyl)amino]-3-methylbutan-1-ol], which IC50 is on record?
Answer: 520 nM

Question: How did the IC50 turn out when CCC(O)CNCc1ccnc(-c2ccc(C(F)(F)F)cc2)n1 (stereo not drawn) [Example 181, 1-[({2-[4-(trifluoromethyl)phenyl]pyrimidin-4-yl}methyl)amino]butan-2-ol] was run?
Answer: > 20000 nM

Question: With C[C@@H](O)CNCc1ccnc(-c2ccc(C(F)(F)F)cc2)n1 [Example 183, (2R)-1-[({2-[4-(trifluoromethyl)phenyl]pyrimidin-4-yl}methyl)amino]propan-2-ol] as the compound, how does the IC50 read?
Answer: > 20000 nM

Question: Which IC50 does the source give for O[C@H]1CCC[C@@H]1NCc1ccnc(-c2ccc(C(F)(F)F)cc2)n1 [Example 174, (1S,2S)-2-[({2-[4-(trifluoromethyl)phenyl]pyrimidin-4-yl}methyl)amino]cyclopentanol] here?
Answer: > 20000 nM

Question: CC(C)[C@H](CO)NCc1nc(-c2cccc(S(=O)(=O)N(C)C(C)(C)C)c2)ccc1F [Example 61, N-tert-butyl-3-[5-fluoro-6-({[(2R)-1-hydroxy-3-methylbutan-2-yl]amino}methyl)pyridin-2-yl]-N-methylbenzenesulfonamide] was tested. Which IC50 did it give?
Answer: 190 nM

Question: How did the IC50 turn out when CC(C)(C)[C@H](CO)NCc1nc(-c2ccc(C(F)(F)F)cc2)ccc1F [Example 85, (2R)-2-((3-fluoro-6-(4-(trifluoromethyl)phenyl)pyridin-2-yl)methylamino)-3,3-dimethylbutan-1-ol] was run?
Answer: 520 nM

Question: For OC[C@@H](Cc1ccccc1)NCc1ccnc(-c2ccc(C(F)(F)F)cc2)n1 [Example 140, (2R)-3-phenyl-2-[({2-[4-(trifluoromethyl)phenyl]pyrimidin-4-yl}methyl)amino]propan-1-ol], which IC50 is on record?
Answer: > 20000 nM

Question: How did the IC50 turn out when C[C@H](CO)NCc1ccnc(-c2ccc(C(F)(F)F)cc2)n1 [Example 137, (2R)-2-[({2-[4-(trifluoromethyl)phenyl]pyrimidin-4-yl}methyl)amino]propan-1-ol] was run?
Answer: 7830 nM

Question: Which IC50 does the source give for CC(C)(C)[C@H](CO)NCc1nc(-c2ccc(C(F)(F)F)nc2)ccc1F [Example 89, (2R)-2-({[5-fluoro-6′-(trifluoromethyl)-2,3′-bipyridin-6-yl]methyl}amino)-3,3-dimethylbutan-1-ol] here?
Answer: 510 nM

Question: With OCC1(NCc2cccc(-c3cc(C(F)(F)F)cc(C(F)(F)F)c3)n2)CCCC1 [Example 272, {1-[({6-[3,5-bis(trifluoromethyl)phenyl]pyridin-2-yl}methyl)amino]cyclopentyl}methano 1] as the compound, how does the IC50 read?
Answer: 220 nM

Question: How did the IC50 turn out when CC(C)[C@H](CO)NCc1ccc(F)c(-c2ccc(C(F)(F)F)nc2)n1 [Example 109, (2R)-2-({[3-fluoro-6′-(trifluoromethyl)-2,3′-bipyridin-6-yl]methyl}amino)-3-methylbutan-1-ol] was run?
Answer: 3590 nM

Question: How did the IC50 turn out when CC(C)[C@H](CO)NCc1nc(-c2cc3ccccc3n2C(=O)OC(C)(C)C)ccc1F [Example 273, tert-butyl 2-[5-fluoro-6-({[(2R)-1-hydroxy-3-methylbutan-2-yl]amino}methyl)pyridin-2-yl]-1H-indole-1-carboxylate] was run?
Answer: 120 nM

Question: For CC(C)[C@H](CO)NCc1cccc(-c2ccc([Si](C)(C)C(C)(C)C)s2)n1 [Example 227, (2R)-2-{[(6-{5-[tert-butyl(dimethyl)silyl]thiophen-2-yl}pyridin-2-yl)methyl]amino}-3-methylbutan-1-ol], which IC50 is on record?
Answer: 1800 nM

Question: CC(C)[C@H](CO)NCc1nc(N2Cc3cccc(Cl)c3C2)ccc1F [Example 95, (2R)-2-({[6-(4-chloro-1,3-dihydro-2H-isoindol-2-yl)-3-fluoropyridin-2-yl]methyl}amino)-3-methylbutan-1-ol] was tested. Which IC50 did it give?
Answer: 340 nM

Question: With CC(C)[C@@H](NCc1nc(-c2ccc(C(F)(F)F)cc2)ccc1F)C(C)(C)O [Example 105, (3R)-3-[({3-fluoro-6-[4-(trifluoromethyl)phenyl]pyridin-2-yl}methyl)amino]-2,4-dimethylpentan-2-ol] as the compound, how does the IC50 read?
Answer: 2760 nM

Question: CC(C)[C@H](CO)NCc1nc(-c2cc3ccccc3[nH]2)ccc1F [Example 274, (2R)-2-({[3-fluoro-6-(1H-indol-2-yl)pyridin-2-yl]methyl}amino)-3-methylbutan-1-ol] was tested. Which IC50 did it give?
Answer: 260 nM

Question: How did the IC50 turn out when COCC(CO)NCc1ccnc(-c2ccc(C(F)(F)F)nc2)n1 (stereo not drawn) [Example 187, 3-methoxy-2-[({2-[6-(trifluoromethyl)pyridin-3-yl]pyrimidin-4-yl}methyl)amino]propan-1-ol] was run?
Answer: > 20000 nM

Question: With CC(C)[C@H](CO)NCc1nc(-c2ccc(F)c(F)c2F)ccc1F [Example 245, (2R)-2-({[3-fluoro-6-(2,3,4-trifluorophenyl)pyridin-2-yl]methyl}amino)-3-methylbutan-1-ol] as the compound, how does the IC50 read?
Answer: 160 nM

Question: With OC[C@H](NCc1ccnc(-c2ccc(C(F)(F)F)cc2)n1)C1CCCCC1 [Example 146, (2R)-2-cyclohexyl-2-[({2-[4-(trifluoromethyl)phenyl]pyrimidin-4-yl}methyl)amino]ethanol] as the compound, how does the IC50 read?
Answer: 8650 nM

Question: CC(C)[C@H](CO)NCc1nc(-c2cccc(N3CCCC3)c2)ccc1F [Example 49, (2R)-2-[({3-fluoro-6-[3-(pyrrolidin-1-yl)phenyl]pyridin-2-yl}methyl)amino]-3-methylbutan-1-ol] was tested. Which IC50 did it give?
Answer: 480 nM

Question: With CC(C)[C@H](CO)NCc1nc(C2CCCC2)ccc1F [Example 220, (2R)-2-{[(6-cyclopentyl-3-fluoropyridin-2-yl)methyl]amino}-3-methylbutan-1-ol] as the compound, how does the IC50 read?
Answer: 480 nM

Question: How did the IC50 turn out when CC(C)[C@H](CO)NCc1cccc(-c2ccc(F)c(C#N)c2)n1 [Example 269, 2-fluoro-5-[6-({[(2R)-1-hydroxy-3-methylbutan-2-yl]amino}methyl)pyridin-2-yl]benzonitrile] was run?
Answer: 440 nM

Question: With CC(c1ccccc1)c1ccc(F)c(CN[C@@H](CO)C(C)C)n1 (stereo partly drawn) [Example 127, (2R)-2-({[3-fluoro-6-(1-phenylethyl)pyridin-2-yl]methyl}amino)-3-methylbutan-1-ol] as the compound, how does the IC50 read?
Answer: 1440 nM

Question: With CC[C@@H](NCc1nc(-c2ccc(C(F)(F)F)nc2)ccc1F)C(C)O (stereo partly drawn) [Example 115, (3R)-3-({[5-fluoro-6′-(trifluoromethyl)-2,3′-bipyridin-6-yl]methyl}amino)pentan-2-ol] as the compound, how does the IC50 read?
Answer: 510 nM

Question: How did the IC50 turn out when CC(C)[C@H](CO)NCc1ccnc(-c2ccc(Cl)cc2)n1 [Example 34, (2R)-2-({[2-(4-chlorophenyl)pyrimidin-4-yl]methyl}amino)-3-methylbutan-1-ol] was run?
Answer: 1390 nM

Question: Which IC50 does the source give for CC(C)[C@H](CO)NCc1nc(-c2ccccc2F)ccc1F [Example 13, (2R)-2-({[3-fluoro-6-(2-fluorophenyl)pyridin-2-yl]methyl}amino)-3-methylbutan-1-ol] here?
Answer: 1120 nM

Question: How did the IC50 turn out when CC(C)[C@H](CO)NCc1nccc(-c2ccc(F)cc2)n1 [Example 32, (2R)-2-({[4-(4-fluorophenyl)pyrimidin-2-yl]methyl}amino)-3-methylbutan-1-ol] was run?
Answer: 12000 nM

Question: How did the IC50 turn out when CC(C)[C@H](CO)NCc1nc(C2=CCC(F)(F)CC2)ccc1F [Example 224, (2R)-2-({[6-(4,4-difluorocyclohex-1-en-1-yl)-3-fluoropyridin-2-yl]methyl}amino)-3-methylbutan-1-ol] was run?
Answer: 140 nM

Question: Which IC50 does the source give for OCC1(NCc2ccnc(-c3ccc(C(F)(F)F)cc3)n2)CCC1 [Example 132, {1-[({2-[4-(trifluoromethyl)phenyl]pyrimidin-4-yl}methyl)amino]cyclobutyl}methanol] here?
Answer: > 20000 nM
